BindingDB's records for PubMed 39442337 (China Pharmaceutical University)

Assay: Antagonist activity at PAR4 in human platelet rich plasma assessed as inhibition of gamma-PAR4 agonist peptide (AYPGKF-NH2)-induced platelet aggregation preincubated for 5 mins followed by peptide addition and measured after 5 mins by aggregometer
`COCc1ncc2c(-c3nc4cc(F)c(OCCOC(=O)Nc5cc(F)cc(C#N)c5)cc4s3)cc(C)cc2n1` showed an IC50 of 9.5 nM.
`COc1ncc2c(-c3nc4cc(F)c5c(c4s3)C[C@H](COC(=O)Nc3cccc(C#N)c3)O5)cc(C)cc2n1` gave an IC50 of 6.4 nM.
For `COc1ncc2c(-c3nc4cc(F)c5c(c4s3)C[C@H](COC(=O)Nc3cc(F)cc(C#N)c3)O5)cc(C)cc2n1`, the IC50 was 3.5 nM.

Assay: Antagonist activity at PAR4 in mouse washed platelets assessed as inhibition of gamma-PAR4 agonist peptide (AYPGKF-NH2)-induced platelet aggregation preincubated for 5 mins followed by peptide addition and measured after 5 mins by aggregometer
Work on `COc1ncc2c(-c3nc4cc(F)c5c(c4s3)C[C@H](COC(=O)Nc3ccc(C)cc3F)O5)cc(C)cc2n1` yielded an IC50 of 51 nM.
`COc1cc(Cl)c2nc(-c3cc(C)cc4cnc(N5CCCCC5)nc34)sc2c1` showed an IC50 of 335 nM.
For `CNc1ncc2c(-c3nc4c(Cl)cc(OC)cc4s3)cc(C)cc2n1`, the IC50 was 223 nM.
Compound `COCc1ncc2c(-c3nc4cc(F)c(OCCOC(=O)Nc5cccc(C#N)c5)cc4s3)cc(C)cc2n1` has an IC50 of 69 nM.
Work on `COc1ccc(NC(=O)OC[C@H]2Cc3c(c(F)cc4nc(-c5cc(C)cc6nc(OC)ncc56)sc34)O2)c(C)c1` yielded an IC50 of 187 nM.
With `COCc1ncc2c(-c3nc4cc(F)c(OCCOC(=O)Nc5ccc(C(=O)N6CCOCC6)cc5)cc4s3)cc(C)cc2n1` the IC50 was 89 nM.
`COCOc1ncc2c(-c3nc4c(Cl)cc(OC)cc4s3)cc(C)cc2n1` showed an IC50 of 45 nM.
For `COc1cc2sc(-c3cc(C)cc4nc(SC)ncc34)nc2cc1F`, the IC50 was 96 nM.
Work on `COc1cc(Cl)c2nc(-c3cc(C)cc4nc(SC)ncc34)sc2c1` yielded an IC50 of 136 nM.
`COc1cc(Cl)c2nc(-c3cc(C)cc4cnc(OC(C)C)nc34)sc2c1` showed an IC50 of 773 nM.
In the case of `COc1cc(OC)c2nc(-c3cc(C)cc4nc(SC)ncc34)sc2c1`, the IC50 is reported as > 1000 nM.
Work on `COCCCOc1ncc2cc(C)cc(-c3nc4c(Cl)cc(OC)cc4s3)c2n1` yielded an IC50 of 963 nM.
With `COc1ncc2c(-c3nc4ccccc4s3)cc(C)cc2n1` the IC50 was 368 nM.
For `COc1ccc2nc(-c3cc(C)cc4cnc(OC)nc34)sc2c1`, the IC50 was 89 nM.
For `COc1ncc2c(-c3nc4cc(F)c5c(c4s3)C[C@H](COC(=O)Nc3cnc(C)nc3)O5)cc(C)cc2n1`, the IC50 was 689 nM.
In the case of `COc1ccc2nc(-c3cc(C)cc4nc(OC)ncc34)sc2c1`, the IC50 is reported as 103 nM.
`COc1ncc2c(-c3nc4cc(F)c5c(c4s3)C[C@H](COC(=O)Nc3ccc(C(=O)N4CCOCC4)cc3)O5)cc(C)cc2n1` gave an IC50 of 417 nM.
`COc1ncc2c(-c3nc4cc(F)c5c(c4s3)C[C@@H](COC(=O)N3CCOCC3)O5)cc(C)cc2n1` gave an IC50 of 304 nM.
`COc1ncc2c(-c3nc4cc(F)c5c(c4s3)C[C@@H](COC(=O)Nc3ccc(C(=O)N4CCOCC4)cc3)O5)cc(C)cc2n1` gave an IC50 of 165 nM.
`COCc1ncc2c(-c3nc4cc(F)c(OCCOC(=O)N5CCOCC5)cc4s3)cc(C)cc2n1` showed an IC50 of 756 nM.
Work on `COc1ccc(NC(=O)OC[C@H]2Cc3c(c(F)cc4nc(-c5cc(C)cc6nc(OC)ncc56)sc34)O2)cc1` yielded an IC50 of 96 nM.
For `COCCOc1ncc2cc(C)cc(-c3nc4c(Cl)cc(OC)cc4s3)c2n1`, the IC50 was > 1000 nM.
Compound `COC(=O)OC[C@H]1Cc2c(c(F)cc3nc(-c4cc(C)cc5nc(OC)ncc45)sc23)O1` has an IC50 of 535 nM.
`COc1cc(Cl)c2nc(-c3cc(C)cc4nc(OC(C)C)ncc34)sc2c1` gave an IC50 of 456 nM.
Work on `COc1cc(C)c2nc(-c3cc(C)cc4nc(OC)ncc34)sc2c1` yielded an IC50 of 163 nM.
Compound `CCOc1ncc2cc(C)cc(-c3nc4c(Cl)cc(OC)cc4s3)c2n1` has an IC50 of 567 nM.
`COc1cc(Cl)c2nc(-c3cc(C)cc4cnc(SC)nc34)sc2c1` gave an IC50 of 89 nM.
`COc1ncc2c(-c3nc4cc(F)c5c(c4s3)C[C@H](COC(=O)Nc3ccc(OC)c(F)c3)O5)cc(C)cc2n1` showed an IC50 of 169 nM.
With `COCOc1ncc2c(-c3nc4ccc(OC)cc4s3)cc(C)cc2n1` the IC50 was 109 nM.
`COc1cc(OC)c2nc(-c3cc(C)cc4nc(OC)ncc34)sc2c1` gave an IC50 of 223 nM.
`COc1ncc2c(-c3nc4cc(F)c5c(c4s3)C[C@H](COC(=O)N3CCOCC3)O5)cc(C)cc2n1` gave an IC50 of 168 nM.
`COc1cc(Cl)c2nc(-c3cc(C)cc4cnc(N(C)C)nc34)sc2c1` gave an IC50 of 105 nM.
`COc1cc(Cl)c2nc(-c3cc(C)cc4cnc(OC5CCCC5)nc34)sc2c1` showed an IC50 of 986 nM.
`COCc1ncc2c(-c3nc4cc(F)c(OCCOC(=O)Nc5cc(F)cc(C#N)c5)cc4s3)cc(C)cc2n1` gave an IC50 of 19 nM.
Compound `COCOc1ncc2c(-c3nc4c(F)cc(OC)cc4s3)cc(C)cc2n1` has an IC50 of 89 nM.
For `COc1cc(Cl)c2nc(-c3cc(C)cc4cnc(OCC(C)C)nc34)sc2c1`, the IC50 was > 1000 nM.
Work on `COc1ccc2nc(-c3cc(C)cc4nc(OC(C)C)ncc34)sc2c1` yielded an IC50 of 362 nM.
Work on `COc1cc(Cl)c2nc(-c3cc(C)cc4nc(OC)ncc34)sc2c1` yielded an IC50 of 46 nM.
`COCc1ncc2c(-c3nc4cc(F)c(OCCOC(=O)OC)cc4s3)cc(C)cc2n1` showed an IC50 of 643 nM.
`CCOc1ncc2c(-c3nc4c(Cl)cc(OC)cc4s3)cc(C)cc2n1` showed an IC50 of 223 nM.
Compound `COc1cc(Cl)c2nc(-c3cc(C)cc4cnc(OC)nc34)sc2c1` has an IC50 of 32 nM.
Compound `COc1ncc2cc(C)cc(-c3nc4c(C)cc5c(c4s3)OCCO5)c2n1` has an IC50 of 117 nM.
With `CCOc1ncc2c(-c3nc4cc(F)c(OC)cc4s3)cc(C)cc2n1` the IC50 was 369 nM.
With `COc1ncc2c(-c3nc4cc(F)c5c(c4s3)C[C@H](COC(=O)Nc3cccc(C#N)c3)O5)cc(C)cc2n1` the IC50 was 15 nM.
Compound `COc1ccc(NC(=O)OC[C@H]2Cc3c(c(F)cc4nc(-c5cc(C)cc6nc(OC)ncc56)sc34)O2)cn1` has an IC50 of 356 nM.
With `CCOc1ncc2c(-c3nc4c(F)cc(OC)cc4s3)cc(C)cc2n1` the IC50 was 274 nM.
`COc1ncc2cc(C)cc(-c3nc4c(Cl)cc(Cl)cc4s3)c2n1` showed an IC50 of 356 nM.
In the case of `COc1ncc2cc(C)cc(-c3nc4ccccc4s3)c2n1`, the IC50 is reported as 563 nM.
With `COc1ncc2c(-c3nc4cc(F)c(OC)cc4s3)cc(C)cc2n1` the IC50 was 21 nM.
Work on `COc1cc(Cl)c2nc(-c3cc(C)cc4cnc(OC(F)F)nc34)sc2c1` yielded an IC50 of 87 nM.
Compound `COc1cc(F)c2nc(-c3cc(C)cc4nc(OC)ncc34)sc2c1` has an IC50 of 80 nM.
`COc1ncc2c(-c3nc4cc(F)c5c(c4s3)C[C@@H](COC(=O)Nc3cc(F)cc(C#N)c3)O5)cc(C)cc2n1` showed an IC50 of 109 nM.
Compound `COc1ncc2c(-c3nc4cc(F)c(OCCO)cc4s3)cc(C)cc2n1` has an IC50 of 27 nM.
In the case of `COc1ccc2nc(-c3cc(C)cc4nc(SC)ncc34)sc2c1`, the IC50 is reported as 223 nM.
With `COc1cc(F)c2nc(-c3cc(C)cc4cnc(OC)nc34)sc2c1` the IC50 was 41 nM.
With `COc1cc(Cl)c2nc(-c3cc(C)cc4cnc(N5CC6(COC6)C5)nc34)sc2c1` the IC50 was > 1000 nM.
`COc1cc(Cl)c2nc(-c3cc(C)cc4cnc(C)nc34)sc2c1` gave an IC50 of 64 nM.
Work on `COCOc1ncc2c(-c3nc4cc(F)c(OC)cc4s3)cc(C)cc2n1` yielded an IC50 of 25 nM.
In the case of `CNc1ncc2cc(C)cc(-c3nc4c(Cl)cc(OC)cc4s3)c2n1`, the IC50 is reported as 98 nM.
`COc1ncc2c(-c3nc4cc(F)c5c(c4s3)C[C@H](COC(=O)Nc3ccc(C)cc3)O5)cc(C)cc2n1` gave an IC50 of 73 nM.
With `COc1ncc2c(-c3nc4cc(F)c5c(c4s3)C[C@H](COC(=O)Nc3cc(F)cc(C#N)c3)O5)cc(C)cc2n1` the IC50 was 8.6 nM.
In the case of `COc1cc(Cl)c2nc(-c3cc(C)cc4cnc(N5CCC6(CC5)OCCO6)nc34)sc2c1`, the IC50 is reported as > 1000 nM.
Compound `COc1cc(Cl)c2nc(-c3cc(C)cc4cncnc34)sc2c1` has an IC50 of 72 nM.
Compound `COc1cc(Cl)c2nc(-c3cc(C)cc4cnc(N5CCOCC5)nc34)sc2c1` has an IC50 of 220 nM.
For `COc1ncc2cc(C)cc(-c3nc4cc(F)c(OC)cc4s3)c2n1`, the IC50 was 30 nM.
